Assay results reported in ChEMBL document CHEMBL3507680, “University of Dundee, Gates Library screen for HepG2 cell viability”.

assay: Human HepG2 cell viability assay in 384 well format; type: toxicity, cell-based; set-up: dose 125 nL, time 70.5 hour; cytotoxicity at 70.5 h: concentration not given beside the values; conditions: HepG2 cells, read-out: Inhibition

Row | SMILES | cytotoxicity at 70.5 h [%]
1 | CC(Nc1cccc(CN2CCOC2=O)c1)C(=O)NC(=O)NC(C)(C)C (stereo unspecified) | -16.7
2 | N#Cc1cccnc1NCCc1cc(F)cc2c1OCOC2 | 24
3 | CN(C)c1ccc(CNCc2cnc(N3CCOCC3)nc2)cn1 | 2.93
4 | CSc1nccc(N2CCC3(CCCN(CC4CC4)C3)C2)n1 (stereo unspecified) | -3.08
5 | CC(Cn1ccnc1)NCc1n[nH]c2c1CCC2 (stereo unspecified) | -20.8
6 | Cc1ccc(CC(=O)N2Cc3nccn3CC(CN(C)C)C2)cc1 (stereo unspecified) | -13.3
7 | O=C(c1ccc(=O)[nH]n1)N1CCCC(O)(CN2CCC(F)(F)CC2)CC1 (stereo unspecified) | -8.65
8 | O=C([C@@H]1CC[C@@H]2[C@@H](CCN2CCOCc2ccccc2)O1)N1CCCC1 | 13
9 | COc1ccc(-n2ccc(C(=O)NCCN3CCCC(C)C3)n2)cc1 (stereo unspecified) | 23.3
10 | Cc1cnn(CC2CCCN2C(=O)c2ccccc2-n2cnnn2)c1 (stereo unspecified) | -4.97
11 | O=S(=O)(Cc1ccc(Br)cc1)NCCO | -0.457
12 | Cc1ccc(NC(C)C(=O)NCc2cccs2)cc1Cl (stereo unspecified) | 5.9
13 | Cc1ccc(N2C[C@@H]3CN(C(=O)NC4CCCC4)C[C@]3(C(=O)O)C2)nn1 | 2.02
14 | Cc1cc(C)n(CC2CCCN2C(=O)c2ccc3[nH]cnc3c2)n1 (stereo unspecified) | -9
15 | c1ccc(O[C@H]2COCCN(Cc3c[nH]c4ccccc34)C2)cc1 | -6.76
16 | N#Cc1cc(C#N)c(SCC(=O)NCc2ccc(F)cc2)nc1N | 27.8
17 | CN1CCOC(C(=O)N2CCCC(C)(C)CC2)C1 (stereo unspecified) | -3.51
18 | Cc1csc2c(N3CCC(NCCCC4CCOC4)CC3)ncnc12 (stereo unspecified) | 30.5
19 | CCOC(=O)N1[C@@H](c2ccco2)[C@@H](C(=O)NC)C[C@]12CCCCNC2=O | 15.2
20 | COc1ccc(CNc2cc(-c3nc(C)no3)ccn2)c(OC)c1 | -1.3
21 | Cc1cn2c(n1)CCC(NC(=O)c1cc(C(C)C)no1)C2 (stereo unspecified) | -7.72
22 | CC(C)CCC(C)NC(=O)c1ccc(OCC(N)=O)cc1 (stereo unspecified) | -3.72
23 | COC(=O)c1cccc(CNC(=O)NCCC(F)(F)F)c1 | 1.57

Row | SMILES | cytotoxicity at 70.5 h [%]
24 | c1cnn(CC2CCCN2Cc2ccc(-n3cccn3)cc2)c1 (stereo unspecified) | -8.68
25 | Fc1cnc(N2CCO[C@H]3[C@H](OCCN4CCCC4)CC[C@@H]32)nc1 | -8.48
26 | CCc1noc(C(C)N(C)Cc2cc(Br)ccc2OC)n1 (stereo unspecified) | -15.2
27 | CCc1[nH]c2c(CNC(=O)C3CCCN(C)C3)cc(C)cc2c1C (stereo unspecified) | -4.96
28 | CCc1nnc(CN2CCCC(c3cc(C(N)=O)[nH]n3)C2)o1 (stereo unspecified) | -6.39
29 | CCN(C(=O)CNC1CCc2ncnn2C1)C1=CCCCC1 (stereo unspecified) | 4.5
30 | C[C@@H]1CN(S(C)(=O)=O)C[C@]12CCN(Cc1cccnc1)C2=O | 14.9
31 | CCN(CC)CC(=O)N1CCN(CCc2ccncc2)CC1 | -9.33
32 | COCCNC(=O)[C@H]1CC[C@@H]2[C@@H](CCN2S(C)(=O)=O)O1 | 11.5
33 | CC(C)n1cnnc1CNC(=O)c1cnn(-c2ccccc2)c1 | 10
34 | Cc1nnc(SCc2ccccn2)s1 | 1.03
35 | COCC(O)CN1CCC(=O)N(CC(=O)C(C)(C)C)Cc2ccccc21 (stereo unspecified) | -4.8
36 | O=C(c1ccco1)N1C[C@@H]2OCCN(c3ncccn3)[C@@H]2C1 | -13.6
37 | c1cncc(-c2noc(CN3CCOC(Cn4cccn4)C3)n2)c1 (stereo unspecified) | -4.62
38 | CN(C)C(=O)[C@H]1C[C@@H]2CN(c3ncccn3)C[C@H]1O2 | -4.11
39 | O=C(O)c1ccc(OC2CCOCC2)cc1 | -3.72
40 | CCc1nc(C2CCCN(C(=O)c3cccc(Cl)c3)C2)no1 (stereo unspecified) | -1.41
41 | O=C(c1cscn1)N1CCc2ncnc(-c3cccnc3)c2CC1 | 18.5
42 | Cn1cnc2cc(C(=O)NS(=O)(=O)c3ccccc3Cl)ccc21 | -2.15
43 | CN(C)C(=O)N1C[C@H]2CC[C@@H]1CN(C1Cc3ccccc3C1)C2 | -9.42
44 | CN(C)C(=O)Cn1cnc2c(Br)cccc2c1=O | -10.4
45 | CC(C)(C)NC(=O)CN1CCCNCC1 | -0.58
46 | N#Cc1ccc(CC(=O)N2CCCC(n3cccn3)C2)cc1 (stereo unspecified) | -5.65

Row | SMILES | cytotoxicity at 70.5 h [%]
47 | CCc1nc(N2CCCC(CCCOC)C2)c2cnn(C)c2n1 (stereo unspecified) | -5.41
48 | Cc1cc2c(cc1NC(=O)NCC(C)C)OCO2 | -8.91
49 | Cc1nc(CSCCC(=O)Nc2cccc(N3CCNC3=O)c2)cs1 | -0.129
50 | CCO[C@H]1CN(CC2CC2)[C@@H]2CCCO[C@H]12 | 1.44
51 | Cc1nnc2n1CCN(C(C(=O)NC1CC1)c1ccc(F)cc1)C2 (stereo unspecified) | -3.54
52 | Cc1n[nH]c(C2CN(C(=O)c3cnc[nH]3)CCO2)n1 (stereo unspecified) | -11.1
53 | CCCC(=O)N1CCC(c2cc3cccnc3c(O)n2)CC1 | -5.85
54 | O=C(c1c[nH]c(=O)c(Cl)c1)N1C[C@@H]2CC[C@H](C1)N(Cc1ccccc1)C2 | -1.59
55 | CCCS(=O)(=O)N1CCC2(CC1)CC(=O)N(CCCc1ccccc1)C2 | 23.4
56 | CC(CCc1ccccc1)CC(=O)NC1CCN(CC(N)=O)CC1 (stereo unspecified) | 0.475
57 | Cc1nnc(N2CCC(CNC(=O)OC(C)(C)C)CC2)c(C#N)c1C | 1.28
58 | O=C(CNc1ccccc1S(=O)(=O)C(F)F)NCc1ccco1 | -5.76
59 | NC(=O)c1csc(C(=O)N2CCCC(n3ccnc3)C2)c1 (stereo unspecified) | -8.21
60 | Cc1noc(CCCNC(=O)C2CSCN2C(=O)C(C)(C)C)n1 (stereo unspecified) | 18.7
61 | CCCc1ccc(CN2CCN(C(=O)CC(C)C)[C@@H]3CS(=O)(=O)C[C@@H]32)o1 | -9.85
62 | COc1cccc(Oc2nc(C)c(C(=O)O)s2)c1OC | -13.3
63 | Cc1cnc(C)c(N2CCN(CC3CCCO3)CC2)n1 (stereo unspecified) | -6.94
64 | c1cc(-c2cnccn2)cc(-c2ccn(CCCN3CCCCC3)n2)c1 | -7.3
65 | NC(=O)C1CCCN1c1cc(N2CCc3ccccc3C2)ncn1 (stereo unspecified) | -5.82
66 | Cc1cc(C(F)(F)F)nc(CNC(=O)CCC2CCCN(C)C2)n1 (stereo unspecified) | -6.3
67 | O=C1C(Nc2ccc3nccnc3n2)CCN1c1ccccc1 (stereo unspecified) | -6.11
68 | CC(C)CN1CCCn2nc(CNC(=O)OCc3ccccc3)cc2C1 | -5.5
69 | Fc1cccc(N2CCc3ncnc(N4CCOCC4)c3CC2)c1 | -6.22

Row | SMILES | cytotoxicity at 70.5 h [%]
70 | Cc1ccc(CN2C[C@@H](OCc3csc(C)n3)[C@H]3COC[C@H]32)s1 | -10.6
71 | CC(C)CN1C[C@H]2CCN(C(=O)NC3CCCC3)CC[C@H]2S1(=O)=O | -9.06
72 | c1cnnc(N2CCCC(NCc3ccc(-n4cncn4)cc3)C2)c1 (stereo unspecified) | -3.17
73 | C=Cc1ccc(C(=O)N2CCCC(Nc3ccc(F)c(F)c3)C2)cc1 (stereo unspecified) | 26
74 | O=C1CCC2(CCCN(C(=O)Cc3ccccn3)C2)N1 (stereo unspecified) | 2.4
75 | COc1ccc2c(c1)CCCN2C(=O)CN1CCOC(CN(C)C)C1 (stereo unspecified) | -4.78
76 | Nc1nc(CCCNC(=O)c2ccc(C3CCCNC3)cc2)cs1 (stereo unspecified) | -7.45
77 | O=C1C(N2CCN(c3ccccc3Cl)CC2)CCN1C1CCOCC1 (stereo unspecified) | -5.64
78 | CCCc1nnc(NCCCn2nc(C)c(Cl)c2C)o1 | -7.76
79 | OCCc1cc(CC2(NCc3ccncc3)COC2)no1 | -4.15
80 | CN(C)C(=O)c1nc(-c2ccc(S(C)(=O)=O)cc2)c2ccccn12 | -12.8
81 | Cc1ccc(CN2CCc3ncnc(OC(C)C)c3CC2)s1 | -6.82
82 | CCCNC(=O)C(C)Nc1ccc(COCC)cc1 (stereo unspecified) | -0.943
83 | Cc1ccc(CNC(=O)N2CCCCC2CCNS(C)(=O)=O)cc1 (stereo unspecified) | -8.15
84 | CC(C)c1nc(C2CCCN2Cc2nccn2CC(F)(F)F)no1 (stereo unspecified) | -8.8
85 | COc1ccc(Cn2nc(C(N)=O)ccc2=O)c(Cl)c1 | -3.77
86 | CC(=O)N1CCCC(c2ccnc(Nc3cnccn3)c2)C1 (stereo unspecified) | -1.19
87 | CCn1c(CC2CCN(C(=O)C3CNCCO3)CC2)nn(C)c1=O (stereo unspecified) | -16.2
88 | CCOc1cccc(CNC(=O)N2CCC(Cc3cnn(C)c3)C2)c1 (stereo unspecified) | -13.7
89 | COc1cccc(CCC2CCCN(C(=O)c3n[nH]c4c3CCC4)C2)c1 (stereo unspecified) | 0.453
90 | c1coc(CN2CC[C@@H]3O[C@@H](COCc4ccncc4)CC[C@@H]32)c1 | 3.57
91 | FC(F)(F)Cn1ccnc1CN1CCOC(Cn2cccn2)C1 (stereo unspecified) | -2.61
92 | COc1ccc2c(c1)NC(=O)C2OC(=O)Cc1ccccc1C (stereo unspecified) | 31.3

Row | SMILES | cytotoxicity at 70.5 h [%]
93 | c1ncn(Cc2ccc(CNCc3ccc4c(c3)OCCO4)cc2)n1 | -13.3
94 | CS(=O)(=O)c1cncnc1C1CCCN(C(=O)Nc2ccccc2F)C1 (stereo unspecified) | -11.6
95 | O=c1nc(SCc2cccnc2)c2c(n1CCO)CCCC2 | -11
96 | CN1CCN(C[C@@H]2OC[C@H]3CN(Cc4ccsc4)CC[C@H]32)CC1 | -4.59
97 | Cn1cc(CN2CCOCC3(CCN(C4CCOCC4)C3)C2)cn1 (stereo unspecified) | 6.49
98 | CC1CCc2nn(CCNC(=O)Cc3cccs3)c(=O)cc2C1 (stereo unspecified) | -2.17
99 | CN1Cc2c(C(=O)N3CCOCC3)ncn2-c2ccccc2S1(=O)=O | -1.47
100 | O=C(Cc1ccccc1F)N1C[C@@H]2COC[C@]2(COc2cccnc2)C1 | -11.5
101 | O=C(C1CC=CC1)N1C[C@@H](OCc2cccnc2)[C@H]2OCCC[C@H]21 | 11.2
102 | Cc1cc2[nH]c(CN3CCCCC3c3cccc(F)c3)cc(=O)n2n1 (stereo unspecified) | -5.96
103 | O=C(c1cccc2cccnc12)N1CCCN(c2cccnn2)CC1 | -10.5
104 | CCOc1ccc(C(=O)CCC(=O)N(C)Cc2cnccn2)cc1C | 10.8
105 | Cc1nc(=O)c2ccccc2n1C1=CCN(CC(=O)NC(C)C)CC1 | -1.95
106 | O=C(C1CCCO1)N1CCC(n2cc(-c3ccsc3)nn2)CC1 (stereo unspecified) | -13.3
107 | O=C(Cn1cc(I)cn1)N1CCCCCC1 | -3.07
108 | O=C(c1cccnc1)N1CCc2c(COCC3CC3)cncc2C1 | -2.77
109 | CC(C)(C)CNC[C@H]1Cn2c(-c3ccccc3)cnc2CO1 | -3.54
110 | Cc1cc(C(=O)NC2CCc3c(ccc(=O)n3CCN(C)C)C2)no1 (stereo unspecified) | -3.71
111 | Cc1nn(C)c(=O)c2nn(-c3cccc(Cl)c3)c(C)c12 | -14.1
